In ChEMBL document CHEMBL1201862, “PubChem BioAssay data set” (2004):
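Test compounds were applied to cells in 96-well plates for 48 hours at 5 doses. GI50 = concentration required for 50% inhibition of growth.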 The source made the active and inactive calls. No stated cut-off is given here; in the data, active = GI50 up to about 1.1 µM and inactive = higher. Peptide text beside a SMILES is read from it. * marks the point of attachment. Cbz = O=C(OCc1ccccc1)*

Columns and labels:
Test in all cases: inhibition of tumour cell growth, NCI panel, 48 h
[1] = tested on: RXF 393
[2] = tested on: OVCAR-3
[3] = tested on: SK-MEL-28
[4] = tested on: MDA-MB-231
[5] = tested on: U-251
[6] = tested on: SF-539
[7] = tested on: TK-10
[8] = tested on: K562
[9] = tested on: UO-31
[10] = tested on: CAKI-1
[11] = tested on: PC-3
[12] = tested on: HCT-116
[13] = tested on: HL-60
[14] = tested on: HOP-62
[15] = tested on: SK-MEL-5
[16] = tested on: KM12
[17] = tested on: OVCAR-4
[18] = tested on: SK-OV-3
[19] = tested on: NCI-H460
[20] = tested on: CCRF-CEM

Measured: GI50

Nc1nc(-c2ccccc2)c(CC(=O)O)s1
inactive: [1] > 100 µM | [2] > 100 µM | [3] > 100 µM | [4] > 100 µM | [5] > 100 µM | [6] > 100 µM | [7] > 100 µM | [8] > 100 µM | [9] > 100 µM | [10] > 100 µM | [11] > 100 µM | [12] > 100 µM | [13] 20 µM | [14] > 100 µM | [15] > 100 µM | [16] > 100 µM | [17] > 100 µM | [18] > 100 µM | [19] > 100 µM

CC1CC(C)CC(NC2=NCCO2)C1 (stereo not given)
inactive: [1] > 100 µM | [2] > 100 µM | [3] > 100 µM | [20] > 100 µM | [4] > 100 µM | [5] > 100 µM | [6] > 100 µM | [7] > 100 µM | [8] > 100 µM | [9] > 100 µM | [10] > 100 µM | [11] > 100 µM | [12] > 100 µM | [13] > 100 µM | [14] > 100 µM | [15] > 100 µM | [16] > 100 µM | [17] > 100 µM | [19] > 100 µM

CCO[C@H]1C[C@@H](c2ccccc2)[C@]2(C)C[C@H](C(=O)OC)ON2O1
inactive: [1] > 100 µM | [2] > 100 µM | [3] > 100 µM | [20] > 100 µM | [4] > 100 µM | [5] > 100 µM | [6] > 100 µM | [7] > 100 µM | [8] > 100 µM | [9] > 100 µM | [10] > 100 µM | [11] > 100 µM | [12] > 100 µM | [13] > 100 µM | [14] > 100 µM | [15] > 100 µM | [16] > 100 µM | [17] > 100 µM

Cc1cc(Cl)ccc1C(=O)c1ccc2ccccc2c1C(=O)O
inactive: [1] 39.6 µM | [2] > 100 µM | [3] > 100 µM | [20] > 100 µM | [4] > 100 µM | [5] > 100 µM | [6] > 100 µM | [7] > 100 µM | [8] > 100 µM | [9] > 100 µM | [10] > 100 µM | [11] > 100 µM | [12] > 100 µM | [13] > 100 µM | [15] > 100 µM | [16] > 100 µM | [17] > 100 µM | [19] > 100 µM

CO/C(=N\N=C\c1ccc(Cl)cc1Cl)c1ccncc1
inactive: [1] > 10 µM | [2] > 10 µM | [20] > 10 µM | [4] > 10 µM | [5] > 10 µM | [7] > 10 µM | [8] > 10 µM | [9] > 10 µM | [10] > 10 µM | [11] > 10 µM | [12] > 10 µM | [13] > 10 µM | [14] > 10 µM | [16] > 10 µM | [17] > 10 µM | [19] > 10 µM

O=C1C2SC34c5c2c2ccccc2n5CCC3CCCN14 (stereo not given)
inactive: [1] 98.4 µM | [2] 65 µM | [3] > 100 µM | [4] 39.6 µM | [5] 33.9 µM | [6] > 100 µM | [7] 25.9 µM | [8] > 100 µM | [9] > 100 µM | [10] 48.4 µM | [11] 54.8 µM | [12] > 100 µM | [13] > 100 µM | [14] 31.8 µM | [15] > 100 µM | [16] > 100 µM | [17] 37.5 µM | [18] > 100 µM

O=C(O)CN1C(=O)c2ccc(NC(=O)C(=O)O)cc2S1(=O)=O
inactive: [1] > 100 µM | [3] > 100 µM | [20] > 100 µM | [4] > 100 µM | [5] > 100 µM | [7] > 100 µM | [8] > 100 µM | [9] 89.7 µM | [10] > 100 µM | [11] > 100 µM | [12] > 100 µM | [13] > 100 µM | [14] > 100 µM | [15] > 100 µM | [16] > 100 µM | [17] > 100 µM | [18] > 100 µM | [19] > 100 µM

O=C1/C(=C/c2c(Cl)[nH]c3ccccc23)c2ccccc2N1c1ccccc1
inactive: [1] 11.9 µM | [2] 1.79 µM | [3] 10.4 µM | [20] 3.9 µM | [4] 6.4 µM | [5] 5.05 µM | [6] 3.7 µM | [7] 11.2 µM | [8] 4.1 µM | [9] 6.46 µM | [10] 8.3 µM | [11] 4.28 µM | [12] 4.6 µM | [13] 3.01 µM | [14] 4.94 µM | [15] 2.89 µM | [16] 3.86 µM | [18] 2 µM | [19] 3.59 µM

CCOC(=O)C(C)NC(=O)C(C)NC(=O)C(C)NC(=O)C(C)NC(=O)C(C)NC(=O)C(C)NC(=O)C(C)NC(=O)OCc1ccccc1 (stereo not given) (Cbz-AAAAAAA-OEt; configuration not given here)
inactive: [1] > 100 µM | [2] > 100 µM | [3] > 100 µM | [4] > 100 µM | [5] > 100 µM | [6] > 100 µM | [7] > 100 µM | [8] > 100 µM | [9] > 100 µM | [10] > 100 µM | [11] > 100 µM | [12] > 100 µM | [13] > 100 µM | [14] > 100 µM | [15] > 100 µM | [16] > 100 µM | [17] > 100 µM | [18] > 100 µM | [19] > 100 µM

CC(=O)OCC1OC(SC2=N/C(=C\c3cc4c(=O)c5ccccc5sc4s3)C(=O)N2c2ccccc2)C(OC(C)=O)C(OC(C)=O)C1OC(C)=O (stereo not given)
inactive: [1] 81.5 µM | [2] > 100 µM | [3] > 100 µM | [4] 58.2 µM | [5] 23.9 µM | [7] > 100 µM | [8] 53.1 µM | [9] > 100 µM | [10] > 100 µM | [11] > 100 µM | [12] 37.6 µM | [13] 20.1 µM | [14] > 100 µM | [15] > 100 µM | [16] > 100 µM | [17] 74.3 µM | [19] 83.2 µM

NS(=O)(=O)c1ccc(NC(=O)Nc2ccccc2F)cc1
inactive: [1] > 100 µM | [2] > 100 µM | [3] > 100 µM | [4] > 100 µM | [5] > 100 µM | [6] > 100 µM | [7] > 100 µM | [8] > 100 µM | [9] 41.7 µM | [10] > 100 µM | [11] > 100 µM | [12] > 100 µM | [13] > 100 µM | [14] > 100 µM | [15] > 100 µM | [16] > 100 µM | [17] > 100 µM | [18] > 100 µM | [19] > 100 µM
